Measured values from patent US4605674A, “Substituted acetophenones and compositions containing them” (Hoffmann-La Roche Inc., priority 1979, dated 1986).
Converted amounts (≈) assume the structure as drawn. Read-outs that look alike come from different tables or passages of the source.

Columns and labels:
rhinovirus HGP = assay: Inhibition of viral cytopathogenic effect (c.p.e.) of rhinovirus HGP in HeLa cells; format: cell-based, human rhinoviruses; conditions: Enterovirus, 48 h, read-out: IC50 against rhinovirus HGP (concentration inhibiting the viral c.p.e. by 50%)
Protocol: A suspension of HeLa cells (6×10^4) was mixed with rhinovirus HGP (3×10^3 plaque forming units, PFU) and was plated in a microtest plate containing the compounds to be tested serially diluted. The cells were then cultured with Eagle's minimum essential medium containing 2% calf serum, 1% tryptose phosphate broth, 100 μg/ml of streptomycin sulfate and 20 unit/ml of penicillin G. Viral c.p.e. (cytopathogenic effect) was observed by a microscope after 2 days culture at 33° C.
The antiviral activity of the tested compounds is expressed by the concentration inhibiting the viral c.p.e. by 50% when compared to the control culture (IC50).

in vivo = conditions: mouse, DDY mice, single dose
Protocol: ^(1) DDY mice weighing 15-20 g were treated with a single dose of the
compound. Survivors were recorded on day 21.
^(2) Compounds were dissolved in dimethylsulfoxide.
^(3) Compounds were suspended with solution of 0.5% carboxymethyl

[1] = ip, i.p., dissolved in dimethylsulfoxide, day 21, read-out: LD50 i.p.
[2] = po, p.o., suspended in 0.5% carboxymethyl cellulose, day 21, read-out: LD50 p.o.
[3] = HeLa cells, 2 days culture at 33° C.

Row | SMILES | IC50 (rhinovirus HGP; HeLa) [µg/mL] | LD50 at 504 h (in vivo; [1]) [mg/kg] | LD50 at 504 h (in vivo; [2]) [mg/kg] | IC50 (rhinovirus HGP; [3]) [µg/mL]
1 | CCCOc1cc(OC)cc(OC(=O)CC)c1C(=O)/C=C/c1ccc(OC)cc1 [4,4'-dimethoxy-2'-(propionyloxy)-6'-propoxychalcone] | 0.03 to 0.1 (≈ 0.0753 to 0.251 µM) | > 500 | > 1000 | 
2 | CCC(=O)Oc1cc(OC)cc(OC)c1C(=O)/C=C/c1ccc(C)cc1 [2',4'-dimethoxy-4-methyl-6'-(propionyloxy)-chalcone] | 0.03 (≈ 0.0846 µM) | > 1000 | > 5000 | 
3 | COc1cc(O)c(C(=O)/C=C/c2ccc(OC)c(OC)c2)c(OC)c1 [2'-hydroxy-3,4,4',6'-tetramethoxychalcone] | 0.1 to 0.3 (≈ 0.29 to 0.871 µM) | > 500 | > 500 | 
4 | CCOc1ccc(/C=C/C(=O)c2c(O)cc(OC)cc2OCC)cc1 [2',4-diethoxy-6'-hydroxy-4'-methoxychalcone] | 0.1 (≈ 0.292 µM) | > 500 | > 5000 | 
5 | CCOc1ccc(/C=C/C(=O)c2c(O)cc(OCC)cc2OC)cc1 [4,4'-diethoxy-2'-hydroxy-6'-methoxychalcone] | 0.006 to 0.02 (≈ 0.0175 to 0.0584 µM) | > 500 | > 1000 | 
6 | COc1ccc(/C=C/C(=O)c2c(OC)cc(OC)cc2OC(=O)c2cccnc2)cc1 [2',4,4'-trimethoxy-6'-(nicotinoyloxy)chalcone] | 0.01 to 0.025 (≈ 0.0238 to 0.0596 µM) | > 500 | > 4000 | 
7 | COc1cc(O)c(C(=O)C=Cc2cccnc2)c(OC)c1 [2'-hydroxy-4',6'-dimethoxy-3-(3-pyridyl)-acrylophenone] |  |  |  | 0.6 (≈ 2.1 µM)
8 | COc1cc(O)c(C(=O)/C=C/c2cccc(OC)c2O)c(OC)c1 [2,2'-dihydroxy-3,4',6'-trimethoxychalcone] | 0.15 to 0.5 (≈ 0.454 to 1.51 µM) | > 500 | > 1000 | 
9 | CCOc1ccc(/C=C/C(=O)c2c(O)cc(OCC)cc2OCC)cc1 | 0.25 (≈ 0.701 µM) | > 1000 | > 3000 | 
10 | COc1cc(O)c(C(=O)C=Cc2ccc(C)o2)c(OC)c1 [2'-hydroxy-4',6'-dimethoxy-3-(5-methyl-2-furyl)-acrylophenone] | 0.03 (≈ 0.104 µM) | > 500 | > 2000 | 
11 | COc1ccc(/C=C/C(=O)c2c(OC)cc(OC)cc2OC(=O)C(C)(C)C)cc1 [2',4,4'-trimethoxy-6'-(pivaloyloxy)-chalcone] | 0.01 to 0.03 (≈ 0.0251 to 0.0753 µM) | > 1000 | > 5000 | 
12 | COc1cc(O)c(C(=O)/C=C/c2ccc(Cl)cc2)c(OC)c1 [4-chloro-2'-hydroxy-4',6'-dimethoxychalcone] | 0.02 to 0.06 (≈ 0.0627 to 0.188 µM) | > 1000 | > 5000 | 
13 | CCOc1cc(OC)cc(OC(=O)CC)c1C(=O)/C=C/c1ccc(OC)cc1 [2'-ethoxy-4,4'-dimethoxy-6'-(propionyloxy)-chalcone] | 0.02 to 0.06 (≈ 0.052 to 0.156 µM) | > 1000 | > 5000 | 
14 | COc1cc(O)c(C(=O)C=Cc2cccn2C)c(OC)c1 [2'-hydroxy-4',6'-dimethoxy-3-(1-methyl-pyrrol-2-yl)-acrylophenone] | 0.1 (≈ 0.348 µM) | > 500 | > 1000 | 
15 | C=CCOc1ccc(/C=C/C(=O)c2c(O)cc(OC)cc2OC)cc1 [4-(allyloxy)-2'-hydroxy-4',6'-dimethoxychalcone] | 0.03 to 0.1 (≈ 0.0881 to 0.294 µM) | > 500 | > 1000 | 
16 | CCC(=O)Oc1cc(OC)cc(OC)c1C(=O)/C=C/c1ccc(Cl)cc1 [4-chloro-2',4'-dimethoxy-6'-(propionyloxy)-chalcone] | 0.1 to 0.3 (≈ 0.267 to 0.8 µM) | > 1000 | > 5000 | 
17 | COc1cc(O)c(C(=O)/C=C/c2ccc(N)cc2)c(OC)c1 [4-amino-2'-hydroxy-4',6'-dimethoxychalcone] |  |  |  | 0.03 to 0.1 (≈ 0.1 to 0.334 µM)
18 | CCCCCCCCCCCCCCCCCC(=O)Oc1cc(OC)cc(OC)c1C(=O)/C=C/c1ccc(OC)cc1 [2',4,4'-trimethoxy-6'-(octadecanoyloxy)chalcone] | 0.05 to 0.1 (≈ 0.0861 to 0.172 µM) | > 500 | > 4000 | 
19 | COc1cc(/C=C/C(=O)c2c(O)cc(OC)cc2OC)cc(OC)c1 [2'-hydroxy-3,4',5,6'-tetramethoxychalcone] | 0.3 (≈ 0.871 µM) | > 500 | > 5000 | 

Row | SMILES | IC50 (rhinovirus HGP; HeLa) [µg/mL] | LD50 at 504 h (in vivo; [1]) [mg/kg] | LD50 at 504 h (in vivo; [2]) [mg/kg] | IC50 (rhinovirus HGP; [3]) [µg/mL]
20 | CCC(=O)Oc1cc(OC)cc(OC)c1C(=O)C=Cc1ccco1 [3-(2-furyl)-2',4'-dimethoxy-6'-(propionyloxy)-acrylophenone] | 0.1 to 0.3 (≈ 0.303 to 0.908 µM) | > 500 | > 1000 | 
21 | CCCOc1cc(OC)cc(O)c1C(=O)/C=C/c1ccc(OC)cc1 [2'-hydroxy-4,4'-dimethoxy-6'-propoxychalcone] | 0.06 (≈ 0.175 µM) | > 500 | > 1500 | 
22 | COc1cc(O)c(C(=O)/C=C/c2ccc(O)c(OC)c2)c(OC)c1 [2',4-dihydroxy-3,4',6'-trimethoxychalcone] |  |  |  | 0.3 to 1 (≈ 0.908 to 3.03 µM)
23 | CCCOc1ccc(/C=C/C(=O)c2c(O)cc(OC)cc2OC)cc1 [2'-hydroxy-4',6'-dimethoxy-4-propoxychalcone] | 0.1 (≈ 0.292 µM) | > 500 | > 5000 | 
24 | COc1cc(O)c(C(=O)/C=C/c2ccc(N(C)C)cc2)c(OC)c1 | 0.02 to 0.06 (≈ 0.0611 to 0.183 µM) | > 1000 | > 5000 | 
25 | CCC(=O)Oc1cc(OC)cc(OC(C)C)c1C(=O)/C=C/c1ccc(OC)cc1 [2'-isopropoxy-4,4'-dimethoxy-6'-(propionyloxy)chalcone] | 0.01 to 0.03 (≈ 0.0251 to 0.0753 µM) | > 500 | > 1000 | 
26 | COc1cc(O)c(C(=O)C=Cc2sccc2C)c(OC)c1 [2'-hydroxy-4',6'-dimethoxy-3-(3-methyl-2-thienyl)-acrylophenone] | 0.1 (≈ 0.329 µM) | > 500 | > 1500 | 
27 | CCOc1cc(OC)cc(O)c1C(=O)/C=C/c1ccc(OC)cc1 [2'-ethoxy-6'-hydroxy-4,4'-dimethoxychalcone] | 0.01 (≈ 0.0305 µM) | > 500 | > 1000 | 
28 | CCOc1ccc(/C=C/C(=O)c2c(O)cc(OC)cc2OC)cc1 [4-ethoxy-2'-hydroxy-4',6'-dimethoxychalcone] | 0.02 to 0.05 (≈ 0.0609 to 0.152 µM) | > 1000 | > 5000 | 
29 | CCOc1cc(O)c(C(=O)C=Cc2ccc(C)o2)c(OC)c1 [4'-ethoxy-2'-hydroxy-6'-methoxy-3-(5-methyl-2-furyl)-acrylophenone] | 0.03 (≈ 0.0992 µM) | > 500 | > 1000 | 
30 | CCOc1ccc(/C=C/C(=O)c2c(OCC)cc(OCC)cc2OC(=O)CC)cc1 [2',4,4'-triethoxy-6'-(propionyloxy)-chalcone] | 0.1 to 0.3 (≈ 0.242 to 0.727 µM) | > 1000 | > 5000 | 
31 | COc1ccc(/C=C/C(=O)c2c(O)cc(OC)cc2OC)c(OC)c1 [2'-hydroxy-2,4,4',6'-tetramethoxychalcone] | 0.1 (≈ 0.29 µM) | > 500 | > 1000 | 
32 | COc1cc(O)c(C(=O)/C=C/c2ccc(C)cc2)c(OC)c1 | 0.01 (≈ 0.0335 µM) | > 1000 | > 5000 | 
33 | CCOC(=O)Oc1cc(OC)cc(OC)c1C(=O)/C=C/c1ccc(OC)cc1 [2'-(ethoxycarbonyloxy)-4,4',6'-trimethoxychalcone] | 0.04 (≈ 0.104 µM) | > 500 | > 4000 | 
34 | CCOc1ccc(/C=C/C(=O)c2c(OC)cc(OC)cc2OC(=O)CC)cc1 [4-ethoxy-2',4'-dimethoxy-6'-(propionyloxy)-chalcone] | 0.03 to 0.1 (≈ 0.078 to 0.26 µM) | > 1000 | > 5000 | 
35 | CCOc1cc(O)c(C(=O)/C=C/c2ccc(OC)cc2)c(OCC)c1 [2',4'-diethoxy-6'-hydroxy-4-methoxychalcone] | 0.03 to 0.1 (≈ 0.0876 to 0.292 µM) | > 1000 | > 2000 | 
36 | CCC(=O)Oc1cc(OC)cc(OC)c1C(=O)C=Cc1cccn1C [2',4'-dimethoxy-3-(1-methylpyrrol-2-yl)-6'-(propionyloxy)-acrylophenone] | 0.3 (≈ 0.874 µM) | > 500 | > 5000 | 
37 | CCN(CC)c1ccc(/C=C/C(=O)c2c(O)cc(OC)cc2OC)cc1 [4-(diethylamino)-2'-hydroxy-4',6'-dimethoxychalcone] |  |  |  | 0.6 to 2 (≈ 1.69 to 5.63 µM)
